Results: ChEMBL document CHEMBL4507267 (2021)

Legend:
[1] = target: Serine/threonine-protein kinase WNK4 (Homo sapiens) (UniProt Q96J92); conditions: Compound concentration 1000.0 nM
[2] = target: Mitogen-activated protein kinase kinase kinase 7 (Homo sapiens) (UniProt O43318); conditions: Compound concentration 1000.0 nM
[3] = target: Serine/threonine-protein kinase Nek1 (Homo sapiens) (UniProt Q96PY6); conditions: Compound concentration 1000.0 nM
[4] = target: Mitogen-activated protein kinase kinase kinase kinase 1 (Homo sapiens) (UniProt Q92918); conditions: Compound concentration 1000.0 nM
[5] = target: Serine/threonine-protein kinase pim-3 (Homo sapiens) (UniProt Q86V86); conditions: Compound concentration 1000.0 nM
[6] = target: Serine/threonine-protein kinase Sgk3 (Homo sapiens) (UniProt Q96BR1); conditions: Compound concentration 1000.0 nM
[7] = target: Mitogen-activated protein kinase kinase kinase 2 (Homo sapiens) (UniProt Q9Y2U5); conditions: Compound concentration 1000.0 nM
Mitogen-activated protein kinase kinase kinase 2 (Homo sapiens), sequence (Q9Y2U5 whole entry): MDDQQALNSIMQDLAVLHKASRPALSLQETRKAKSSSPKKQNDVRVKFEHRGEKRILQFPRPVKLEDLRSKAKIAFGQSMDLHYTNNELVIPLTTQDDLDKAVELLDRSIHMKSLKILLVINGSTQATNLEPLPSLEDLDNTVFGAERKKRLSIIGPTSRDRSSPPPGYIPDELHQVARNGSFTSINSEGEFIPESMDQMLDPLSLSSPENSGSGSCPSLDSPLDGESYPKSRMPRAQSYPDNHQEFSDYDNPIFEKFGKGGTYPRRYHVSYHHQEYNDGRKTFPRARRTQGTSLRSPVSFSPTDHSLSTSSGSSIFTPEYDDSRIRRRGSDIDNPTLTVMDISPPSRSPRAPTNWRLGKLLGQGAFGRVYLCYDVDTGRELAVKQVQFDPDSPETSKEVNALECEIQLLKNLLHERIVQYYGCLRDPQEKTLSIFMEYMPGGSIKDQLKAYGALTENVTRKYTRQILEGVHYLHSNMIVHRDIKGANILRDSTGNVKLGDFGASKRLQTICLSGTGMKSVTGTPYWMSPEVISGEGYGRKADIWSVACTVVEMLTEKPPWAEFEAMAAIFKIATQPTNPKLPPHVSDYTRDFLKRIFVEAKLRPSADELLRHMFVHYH

[8] = target: Ephrin type-B receptor 1 (Homo sapiens) (UniProt P54762); conditions: Compound concentration 1000.0 nM
[9] = target: Kappa-type opioid receptor (Homo sapiens) (UniProt P41145); conditions: Compound concentration 10.0 uM
[10] = target: Rho-associated protein kinase 1 (Homo sapiens) (UniProt Q13464); conditions: Compound concentration 1000.0 nM
[11] = target: Interferon-induced, double-stranded RNA-activated protein kinase (Homo sapiens) (UniProt P19525); conditions: Compound concentration 1000.0 nM
[12] = target: Wee1-like protein kinase 2 (Homo sapiens) (UniProt P0C1S8); conditions: Compound concentration 1000.0 nM
[13] = target: Macrophage colony-stimulating factor 1 receptor (Homo sapiens) (UniProt P07333); conditions: Compound concentration 1000.0 nM
[14] = target: Ribosomal protein S6 kinase alpha-1 (Homo sapiens) (UniProt Q15418); conditions: Compound concentration 1000.0 nM
[15] = target: Dual serine/threonine and tyrosine protein kinase (Homo sapiens) (UniProt Q6XUX3); conditions: Compound concentration 1000.0 nM
[16] = target: Serine/threonine-protein kinase ULK1 (Homo sapiens) (UniProt O75385); conditions: Compound concentration 1000.0 nM
Serine/threonine-protein kinase ULK1 (Homo sapiens), sequence (O75385 whole entry): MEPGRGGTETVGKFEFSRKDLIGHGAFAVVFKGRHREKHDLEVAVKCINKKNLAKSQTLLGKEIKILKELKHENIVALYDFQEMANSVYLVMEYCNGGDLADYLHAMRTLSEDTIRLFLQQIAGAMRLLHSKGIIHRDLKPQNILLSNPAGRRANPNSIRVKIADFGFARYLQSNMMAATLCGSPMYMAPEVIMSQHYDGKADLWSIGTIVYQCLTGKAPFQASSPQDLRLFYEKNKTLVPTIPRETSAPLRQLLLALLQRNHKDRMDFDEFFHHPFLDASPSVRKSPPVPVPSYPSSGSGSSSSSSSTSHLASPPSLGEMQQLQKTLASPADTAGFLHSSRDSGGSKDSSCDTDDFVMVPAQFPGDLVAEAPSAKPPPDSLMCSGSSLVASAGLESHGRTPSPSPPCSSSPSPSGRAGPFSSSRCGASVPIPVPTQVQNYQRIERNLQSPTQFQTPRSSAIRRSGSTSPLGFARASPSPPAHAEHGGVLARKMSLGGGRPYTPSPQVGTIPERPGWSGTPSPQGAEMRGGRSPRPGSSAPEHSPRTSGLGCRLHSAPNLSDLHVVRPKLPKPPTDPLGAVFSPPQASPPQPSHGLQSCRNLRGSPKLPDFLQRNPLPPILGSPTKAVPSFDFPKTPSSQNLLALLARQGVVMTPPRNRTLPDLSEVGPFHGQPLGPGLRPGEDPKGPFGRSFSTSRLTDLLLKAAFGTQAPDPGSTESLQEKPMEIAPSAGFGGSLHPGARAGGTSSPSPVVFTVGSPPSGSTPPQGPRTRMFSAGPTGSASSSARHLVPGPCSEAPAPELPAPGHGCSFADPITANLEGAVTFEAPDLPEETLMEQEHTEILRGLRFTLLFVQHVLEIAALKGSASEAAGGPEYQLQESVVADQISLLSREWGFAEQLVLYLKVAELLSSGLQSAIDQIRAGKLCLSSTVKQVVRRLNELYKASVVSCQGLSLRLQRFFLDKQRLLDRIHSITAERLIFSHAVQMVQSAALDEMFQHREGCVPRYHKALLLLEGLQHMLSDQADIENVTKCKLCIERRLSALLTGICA

[17] = target: Protein kinase C delta type (Homo sapiens) (UniProt Q05655); conditions: Compound concentration 1000.0 nM
[18] = target: Serine/threonine-protein kinase pim-2 (Homo sapiens) (UniProt Q9P1W9); conditions: Compound concentration 1000.0 nM
[19] = target: Serine/threonine-protein kinase PknB (Mycobacterium tuberculosis) (UniProt P9WI81); conditions: Compound concentration 1000.0 nM
[20] = target: BDNF/NT-3 growth factors receptor (Homo sapiens) (UniProt Q16620); conditions: Compound concentration 1000.0 nM
[21] = target: Serine/threonine-protein kinase 32A (Homo sapiens) (UniProt Q8WU08); conditions: Compound concentration 1000.0 nM
Serine/threonine-protein kinase 32A (Homo sapiens), sequence (Q8WU08 whole entry): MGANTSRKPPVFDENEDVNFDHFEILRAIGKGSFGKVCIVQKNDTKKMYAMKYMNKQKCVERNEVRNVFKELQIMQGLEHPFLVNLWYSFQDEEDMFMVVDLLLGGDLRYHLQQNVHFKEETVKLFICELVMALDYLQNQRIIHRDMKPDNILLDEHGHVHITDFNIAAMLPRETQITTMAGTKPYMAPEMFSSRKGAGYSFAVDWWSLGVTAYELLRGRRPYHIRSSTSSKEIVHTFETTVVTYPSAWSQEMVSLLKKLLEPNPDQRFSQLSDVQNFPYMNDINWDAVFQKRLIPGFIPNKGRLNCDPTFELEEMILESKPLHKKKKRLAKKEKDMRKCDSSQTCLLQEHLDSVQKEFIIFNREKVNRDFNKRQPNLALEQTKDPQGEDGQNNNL

[22] = target: Tyrosine-protein kinase ITK/TSK (Homo sapiens) (UniProt Q08881); conditions: Compound concentration 1000.0 nM
[23] = target: Muscarinic acetylcholine receptor M5 (Homo sapiens) (UniProt P08912); conditions: Compound concentration 10.0 uM
[24] = target: Homeodomain-interacting protein kinase 2 (Homo sapiens) (UniProt Q9H2X6); conditions: Compound concentration 1000.0 nM
[25] = target: Receptor-type tyrosine-protein kinase FLT3 (Homo sapiens) (UniProt P36888); conditions: Compound concentration 1000.0 nM
[26] = target: Dual specificity tyrosine-phosphorylation-regulated kinase 1B (Homo sapiens) (UniProt Q9Y463); conditions: Compound concentration 1000.0 nM
[27] = target: Dual specificity mitogen-activated protein kinase kinase 2 (Homo sapiens) (UniProt P36507); conditions: Compound concentration 1000.0 nM
[28] = target: Myosin-IIIa (Homo sapiens) (UniProt Q8NEV4); conditions: Compound concentration 1000.0 nM
Myosin-IIIa (Homo sapiens), sequence (Q8NEV4 whole entry): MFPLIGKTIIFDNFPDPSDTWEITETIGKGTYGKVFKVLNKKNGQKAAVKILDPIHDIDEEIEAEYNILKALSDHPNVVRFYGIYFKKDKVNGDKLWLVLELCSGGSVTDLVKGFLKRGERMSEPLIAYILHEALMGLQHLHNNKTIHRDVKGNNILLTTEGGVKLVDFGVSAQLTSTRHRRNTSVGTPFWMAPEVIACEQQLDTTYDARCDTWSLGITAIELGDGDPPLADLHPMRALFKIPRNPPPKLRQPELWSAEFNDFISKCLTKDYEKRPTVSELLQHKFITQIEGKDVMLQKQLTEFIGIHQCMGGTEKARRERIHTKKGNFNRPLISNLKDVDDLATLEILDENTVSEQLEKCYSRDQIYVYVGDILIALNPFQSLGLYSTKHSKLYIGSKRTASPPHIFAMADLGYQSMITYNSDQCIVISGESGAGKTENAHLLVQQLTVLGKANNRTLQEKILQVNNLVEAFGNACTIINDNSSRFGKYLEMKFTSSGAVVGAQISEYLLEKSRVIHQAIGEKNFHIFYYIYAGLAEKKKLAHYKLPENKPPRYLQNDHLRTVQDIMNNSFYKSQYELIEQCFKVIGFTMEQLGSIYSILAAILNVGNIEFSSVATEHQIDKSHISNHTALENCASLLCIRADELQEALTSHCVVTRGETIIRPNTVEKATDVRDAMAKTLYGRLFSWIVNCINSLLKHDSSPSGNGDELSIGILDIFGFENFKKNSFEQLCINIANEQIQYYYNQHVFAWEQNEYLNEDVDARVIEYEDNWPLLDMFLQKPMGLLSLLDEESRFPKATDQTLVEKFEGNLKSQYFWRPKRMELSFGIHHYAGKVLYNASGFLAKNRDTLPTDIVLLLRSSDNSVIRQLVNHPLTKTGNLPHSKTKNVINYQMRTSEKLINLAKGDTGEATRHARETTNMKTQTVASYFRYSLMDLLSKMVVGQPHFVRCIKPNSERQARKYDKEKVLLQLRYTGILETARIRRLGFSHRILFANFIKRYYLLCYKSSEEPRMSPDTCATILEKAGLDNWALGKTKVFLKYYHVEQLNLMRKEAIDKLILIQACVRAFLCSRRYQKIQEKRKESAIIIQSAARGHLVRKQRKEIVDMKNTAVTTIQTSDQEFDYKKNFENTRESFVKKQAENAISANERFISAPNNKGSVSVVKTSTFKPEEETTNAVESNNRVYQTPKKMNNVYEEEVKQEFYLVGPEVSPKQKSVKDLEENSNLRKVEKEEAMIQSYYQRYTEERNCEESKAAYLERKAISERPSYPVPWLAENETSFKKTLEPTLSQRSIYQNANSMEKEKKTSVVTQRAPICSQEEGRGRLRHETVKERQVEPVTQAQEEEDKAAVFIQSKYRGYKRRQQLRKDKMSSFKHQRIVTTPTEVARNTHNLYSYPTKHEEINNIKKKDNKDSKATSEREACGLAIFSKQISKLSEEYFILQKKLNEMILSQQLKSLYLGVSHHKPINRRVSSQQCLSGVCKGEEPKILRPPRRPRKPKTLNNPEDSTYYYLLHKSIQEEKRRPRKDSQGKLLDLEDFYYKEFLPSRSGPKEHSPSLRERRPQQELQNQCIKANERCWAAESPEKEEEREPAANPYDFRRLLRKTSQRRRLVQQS

[29] = target: 5-hydroxytryptamine receptor 1E (Homo sapiens) (UniProt P28566); conditions: Compound concentration 10.0 uM
5-hydroxytryptamine receptor 1E (Homo sapiens), sequence (P28566 whole entry): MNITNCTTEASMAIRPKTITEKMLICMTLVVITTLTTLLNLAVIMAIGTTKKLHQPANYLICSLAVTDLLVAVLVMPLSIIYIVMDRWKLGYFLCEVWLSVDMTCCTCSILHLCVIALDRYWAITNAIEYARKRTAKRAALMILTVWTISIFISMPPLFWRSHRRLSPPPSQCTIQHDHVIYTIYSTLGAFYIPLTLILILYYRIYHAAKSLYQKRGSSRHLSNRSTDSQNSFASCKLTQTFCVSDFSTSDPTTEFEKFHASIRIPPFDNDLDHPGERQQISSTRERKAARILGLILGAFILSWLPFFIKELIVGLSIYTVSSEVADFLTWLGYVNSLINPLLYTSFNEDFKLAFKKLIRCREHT

[30] = target: SRSF protein kinase 2 (Homo sapiens) (UniProt P78362); conditions: Compound concentration 1000.0 nM
[31] = target: Serine/threonine-protein kinase TAO3 (Homo sapiens) (UniProt Q9H2K8); conditions: Compound concentration 1000.0 nM
[32] = target: Dual specificity tyrosine-phosphorylation-regulated kinase 2 (Homo sapiens) (UniProt Q92630); conditions: Compound concentration 1000.0 nM
[33] = target: Calcium/calmodulin-dependent protein kinase type 1 (Homo sapiens) (UniProt Q14012); conditions: Compound concentration 1000.0 nM
[34] = target: SNF-related serine/threonine-protein kinase (Homo sapiens) (UniProt Q9NRH2); conditions: Compound concentration 1000.0 nM
[35] = test system: Tyrosine-protein kinase ABL1 (Homo sapiens), P00519 [F317I]; conditions: Compound concentration 1000.0 nM
[36] = target: AP2-associated protein kinase 1 (Homo sapiens) (UniProt Q2M2I8); conditions: Compound concentration 1000.0 nM
[37] = test system: Tyrosine-protein kinase ABL1 (Homo sapiens), P00519 [E255K]; conditions: Compound concentration 1000.0 nM
[38] = test system: Epidermal growth factor receptor (Homo sapiens), P00533 [UNDEFINED MUTATION]; conditions: Compound concentration 1000.0 nM
[39] = target: Rho-associated protein kinase 2 (Homo sapiens) (UniProt O75116); conditions: Compound concentration 1000.0 nM
[40] = target: Cyclin-dependent kinase-like 1 (Homo sapiens) (UniProt Q00532); conditions: Compound concentration 1000.0 nM
[41] = target: 5'-AMP-activated protein kinase catalytic subunit alpha-1 (Homo sapiens) (UniProt Q13131); conditions: Compound concentration 1000.0 nM
[42] = target: MAP kinase-interacting serine/threonine-protein kinase 1 (Homo sapiens) (UniProt Q9BUB5); conditions: Compound concentration 1000.0 nM
[43] = target: Tyrosine-protein kinase ABL1 (Homo sapiens) (UniProt P00519); conditions: Compound concentration 1000.0 nM
[44] = target: Cyclin-dependent kinase 7 (Homo sapiens) (UniProt P50613); conditions: Compound concentration 1000.0 nM
[45] = target: Activin receptor type-1 (Homo sapiens) (UniProt Q04771); conditions: Compound concentration 1000.0 nM

Mitogen-activated protein kinase kinase kinase 7 (Homo sapiens), sequence (O43318 whole entry): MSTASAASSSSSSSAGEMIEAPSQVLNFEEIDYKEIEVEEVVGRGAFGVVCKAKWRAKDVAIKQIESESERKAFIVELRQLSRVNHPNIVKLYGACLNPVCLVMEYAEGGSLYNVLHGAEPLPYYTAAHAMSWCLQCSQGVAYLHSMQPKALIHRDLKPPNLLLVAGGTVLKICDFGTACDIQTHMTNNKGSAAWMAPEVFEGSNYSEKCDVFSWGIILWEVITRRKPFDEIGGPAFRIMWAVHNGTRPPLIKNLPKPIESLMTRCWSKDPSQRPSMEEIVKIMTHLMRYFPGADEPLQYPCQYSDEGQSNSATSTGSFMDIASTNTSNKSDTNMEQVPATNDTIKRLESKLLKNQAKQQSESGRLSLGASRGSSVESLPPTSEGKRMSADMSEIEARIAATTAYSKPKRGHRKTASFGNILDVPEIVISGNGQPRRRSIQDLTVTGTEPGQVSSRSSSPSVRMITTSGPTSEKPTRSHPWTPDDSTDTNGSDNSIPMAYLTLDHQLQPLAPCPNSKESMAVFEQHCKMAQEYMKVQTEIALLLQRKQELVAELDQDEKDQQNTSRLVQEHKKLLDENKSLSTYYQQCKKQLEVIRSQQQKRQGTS

Q: With `Cc1c(NC(=O)c2cc(C(N)=O)nc3cc(F)ccc23)c(C(F)(F)F)nn1Cc1ccc(C#N)cc1` [BAY-876] as the compound, how does the residual activity [1] read?
A: -0%

Q: What about the residual activity [2] of the same compound?
A: 68%

Q: What about the residual activity [3] of the same compound?
A: 95%

Q: And the residual activity [4]?
A: 100%

Q: What about the residual activity [5] of the same compound?
A: 100%

Q: And the residual activity [6]?
A: 83%

Q: What about the residual activity [7] of the same compound?
A: 85%

Q: And the residual activity [8]?
A: 66%

Q: And the inhibition [9]?
A: -6.9%

Q: What about the residual activity [10] of the same compound?
A: 97%

Q: And the residual activity [11]?
A: 100%

Q: What about the residual activity [12] of the same compound?
A: 100%

Q: And the residual activity [13]?
A: 100%

Q: And the residual activity [14]?
A: 100%

Q: What about the residual activity [15] of the same compound?
A: 78%

Q: What about the residual activity [16] of the same compound?
A: 81%

Q: What about the residual activity [17] of the same compound?
A: 95%

Q: What about the residual activity [18] of the same compound?
A: 94%

Q: What about the residual activity [19] of the same compound?
A: 78%

Q: What about the residual activity [20] of the same compound?
A: 54%

Q: And the residual activity [21]?
A: 89%

Q: What about the residual activity [22] of the same compound?
A: 78%

Q: What about the inhibition [23] of the same compound?
A: 4.88%

Q: And the residual activity [24]?
A: 83%

Q: What about the residual activity [25] of the same compound?
A: 83%

Q: What about the residual activity [26] of the same compound?
A: 87%

Q: And the residual activity [27]?
A: 89%

Q: And the residual activity [28]?
A: 91%

Q: What about the inhibition [29] of the same compound?
A: 4%

Q: What about the residual activity [30] of the same compound?
A: 100%

Q: And the residual activity [31]?
A: 79%

Q: What about the residual activity [32] of the same compound?
A: 88%

Q: And the residual activity [33]?
A: 100%

Q: What about the residual activity [34] of the same compound?
A: 90%

Q: And the residual activity [35]?
A: 75%

Q: And the residual activity [36]?
A: 79%

Q: And the residual activity [37]?
A: 76%

Q: And the residual activity [38]?
A: 79%

Q: And the residual activity [39]?
A: 99%

Q: What about the residual activity [40] of the same compound?
A: 82%

Q: And the residual activity [41]?
A: 86%

Q: And the residual activity [42]?
A: 68%

Q: What about the residual activity [43] of the same compound?
A: 84%

Q: What about the residual activity [44] of the same compound?
A: 52%

Q: What about the residual activity [45] of the same compound?
A: 87%

Q: What does the source list for `Cc1c(NC(=O)c2cc(C(N)=O)nc3cc(F)ccc23)c(C(F)(F)F)nn1Cc1ccc(C(C)(C)C)cc1` [BAY-588]?
A: residual activity [1]: 100%; residual activity [2]: 100%; residual activity [3]: 97%; residual activity [4]: 100%; residual activity [5]: 100%; residual activity [6]: 94%; residual activity [7]: 100%; residual activity [8]: 86%; inhibition [9]: 22.1%; residual activity [10]: 100%; residual activity [11]: 100%; residual activity [12]: 96%; residual activity [13]: 100%; residual activity [14]: 100%; residual activity [15]: 89%; residual activity [16]: 98%; residual activity [17]: 100%; residual activity [18]: 100%; residual activity [19]: 95%; residual activity [20]: 100%; residual activity [21]: 100%; residual activity [22]: 95%; inhibition [23]: 7.12%; residual activity [24]: 100%; residual activity [25]: 100%; residual activity [26]: 81%; residual activity [27]: 100%; residual activity [28]: 100%; inhibition [29]: 7.98%; residual activity [30]: 97%; residual activity [31]: 45%; residual activity [32]: 88%; residual activity [33]: 82%; residual activity [34]: 93%; residual activity [35]: 100%; residual activity [36]: 83%; residual activity [37]: 100%; residual activity [38]: 75%; residual activity [39]: 100%; residual activity [40]: 100%; residual activity [41]: 100%; residual activity [42]: 100%; residual activity [43]: 96%; residual activity [44]: 100%; residual activity [45]: 100%
